Holding throughout (assay): relative viability (nuclei count vs DMSO), 5 days (fraction); higher = more cells survive
Compound in test [1]: CCN(CCO)CCCC(C)Nc1ccnc2cc(Cl)ccc12 [Hydroxychloroquine] + CCNC(=O)c1noc(-c2cc(C(C)C)c(O)cc2O)c1-c1ccc(CN2CCOCC2)cc1 [Luminespib] (partner 0.01 µM)
The essentials: (§1)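 Relative viability divides the nuclei count in treated wells by that in vehicle wells. Lung cancer cell lines were seeded in 1536-well plates, dosed by pin tool the next day, and fixed and stained after 5 days in one step with final 0.05% Triton X-100, 1% formaldehyde and 1 ug/ml Hoechst. Dosing was a single drug or a fixed anchor-drug dose plus five library-drug doses (not always all listed) in √10 steps, and values are medians of duplicate plates imaged at 4×.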

Compound in test [2]: CCN(CCO)CCCC(C)Nc1ccnc2cc(Cl)ccc12 [Hydroxychloroquine] + CS(=O)(=O)CCNCc1ccc(-c2ccc3ncnc(Nc4ccc(OCc5cccc(F)c5)c(Cl)c4)c3c2)o1 [Lapatinib] (partner 2 µM)
The essentials: as §1

Compound in test [3]: CCN(CCO)CCCC(C)Nc1ccnc2cc(Cl)ccc12 [Hydroxychloroquine] + Nc1ncn([C@H]2C[C@H](O)[C@@H](CO)O2)c(=O)n1 [Decitabine] (partner 2 µM)
The essentials: as §1

Compound in test [4]: CCN(CCO)CCCC(C)Nc1ccnc2cc(Cl)ccc12 [Hydroxychloroquine] + O=C(c1cc(Cc2n[nH]c(=O)c3ccccc23)ccc1F)N1CCN(C(=O)C2CC2)CC1 [Olaparib] (partner 8 µM)
The essentials: as §1

Turning to NCI-H2347, the relative viability is 0.308 in test [1] (first compound 0.5 µM); 0.342 in test [1] (first compound 1.581 µM); 0.531 in test [1] (first compound 5 µM); 0.729 in test [1] (first compound 15.81 µM); 0.361 in test [1] (first compound 50 µM); 0.882 in test [2] (first compound 0.5 µM). The relative viability came to 0.842 in test [2] (first compound 1.581 µM); 1.09 in test [2] (first compound 5 µM); 0.922 in test [2] (first compound 15.81 µM); 0.958 in test [2] (first compound 50 µM); 0.658 in test [3] (first compound 0.5 µM); 0.536 in test [3] (first compound 1.581 µM). For the same cell line, the relative viability was 0.618 in test [3] (first compound 5 µM); 0.573 in test [3] (first compound 15.81 µM); 0.636 in test [3] (first compound 50 µM); 0.594 in test [4] (first compound 0.5 µM); 0.563 in test [4] (first compound 1.581 µM); 0.588 in test [4] (first compound 5 µM). Moreover, the relative viability in test [4] (first compound 15.81 µM) stood at 0.608; in test [4] (first compound 50 µM) it was 0.541.
As to NCI-H2126, the relative viability in test [1] (first compound 0.5 µM) came to 0.908; in test [1] (first compound 1.581 µM), 0.838; in test [1] (first compound 5 µM), 0.823; in test [1] (first compound 15.81 µM), 0.96; in test [1] (first compound 50 µM), 0.931; in test [2] (first compound 0.5 µM), 0.74. Further, the relative viability in test [2] (first compound 1.581 µM) worked out at 0.649; in test [2] (first compound 5 µM), 0.761; in test [2] (first compound 15.81 µM), 0.797; in test [2] (first compound 50 µM) it was 0.816; in test [3] (first compound 0.5 µM), 0.584; in test [3] (first compound 1.581 µM), 0.547. The relative viability turned out to be 0.57 in test [3] (first compound 5 µM); 0.579 in test [3] (first compound 15.81 µM); 0.566 in test [3] (first compound 50 µM); 0.98 in test [4] (first compound 0.5 µM); 0.921 in test [4] (first compound 1.581 µM); 0.9 in test [4] (first compound 5 µM). Besides, the figures for the relative viability in test [4] (first compound 15.81 µM) and in test [4] (first compound 50 µM) were 0.975 and 0.926, respectively.
For HCC-827, the relative viability in test [1] (first compound 0.5 µM) was 0.781; in test [1] (first compound 1.581 µM) it was 0.629; in test [1] (first compound 5 µM), 0.686; in test [1] (first compound 15.81 µM), 0.522; in test [1] (first compound 50 µM) it was 0.85; in test [2] (first compound 0.5 µM), 0.202. The relative viability in test [2] (first compound 1.581 µM) came to 0.222; in test [2] (first compound 5 µM) it was 0.212; in test [2] (first compound 15.81 µM) it was 0.183; in test [2] (first compound 50 µM), 0.205; in test [3] (first compound 0.5 µM) it was 0.323; in test [3] (first compound 1.581 µM), 0.302. The relative viability in test [3] (first compound 5 µM) is 0.317; in test [3] (first compound 15.81 µM), 0.301; in test [3] (first compound 50 µM) it was 0.279; in test [4] (first compound 0.5 µM), 0.645; in test [4] (first compound 1.581 µM) it was 0.618; in test [4] (first compound 5 µM), 0.591. The relative viability worked out at 0.54 in test [4] (first compound 15.81 µM) and 0.561 in test [4] (first compound 50 µM).
Regarding NCI-H3122, the relative viability came out at 0.11 in test [1] (first compound 0.5 µM); 0.0839 in test [1] (first compound 1.581 µM); 0.104 in test [1] (first compound 5 µM); 0.109 in test [1] (first compound 15.81 µM); 0.0905 in test [1] (first compound 50 µM); 1.02 in test [2] (first compound 0.5 µM). Also, the relative viability turned out to be 1.01 in test [2] (first compound 1.581 µM); 1.05 in test [2] (first compound 5 µM); 1 in test [2] (first compound 15.81 µM); 1.07 in test [2] (first compound 50 µM); 0.429 in test [3] (first compound 0.5 µM); 0.413 in test [3] (first compound 1.581 µM). In addition, the relative viability came to 0.468 in test [3] (first compound 5 µM); 0.426 in test [3] (first compound 15.81 µM); 0.403 in test [3] (first compound 50 µM); 0.623 in test [4] (first compound 0.5 µM); 0.646 in test [4] (first compound 1.581 µM); 0.676 in test [4] (first compound 5 µM). Besides, the values for the relative viability in test [4] (first compound 15.81 µM) and in test [4] (first compound 50 µM) were 0.664 and 0.729, respectively.
For the cell line HOP-62, the relative viability in test [1] (first compound 0.5 µM) is 1; in test [1] (first compound 1.581 µM) it was 0.987; in test [1] (first compound 5 µM), 1.01; in test [1] (first compound 15.81 µM), 1.09; in test [1] (first compound 50 µM) it was 1; in test [2] (first compound 0.5 µM) it was 1.07. For the same cell line, the relative viability came to 0.889 in test [2] (first compound 1.581 µM); 1.1 in test [2] (first compound 5 µM); 0.98 in test [2] (first compound 15.81 µM); 1.04 in test [2] (first compound 50 µM); 0.209 in test [3] (first compound 0.5 µM); 0.239 in test [3] (first compound 1.581 µM). The relative viability in test [3] (first compound 5 µM) came out at 0.206; in test [3] (first compound 15.81 µM) it was 0.207; in test [3] (first compound 50 µM) it was 0.206; in test [4] (first compound 0.5 µM), 0.368; in test [4] (first compound 1.581 µM) it was 0.232; in test [4] (first compound 5 µM) it was 0.443. Further, the relative viability in test [4] (first compound 15.81 µM) worked out at 0.496; in test [4] (first compound 50 µM), 0.394.
For the cell line HCC-44, the relative viability in test [1] (first compound 0.5 µM) was 1.12; in test [1] (first compound 1.581 µM), 0.93; in test [1] (first compound 5 µM) it was 1.19; in test [1] (first compound 15.81 µM), 1.19; in test [1] (first compound 50 µM) it was 1.23; in test [2] (first compound 0.5 µM), 0.989. For the same cell line, the relative viability is 1.07 in test [2] (first compound 1.581 µM); 1.08 in test [2] (first compound 5 µM); 1.06 in test [2] (first compound 15.81 µM); 1.04 in test [2] (first compound 50 µM); 0.966 in test [3] (first compound 0.5 µM); 0.978 in test [3] (first compound 1.581 µM). The relative viability in test [3] (first compound 5 µM) stood at 0.974; in test [3] (first compound 15.81 µM), 0.939; in test [3] (first compound 50 µM) it was 0.914; in test [4] (first compound 0.5 µM), 0.964; in test [4] (first compound 1.581 µM), 1.02; in test [4] (first compound 5 µM), 1.03. Besides, the relative viability in test [4] (first compound 15.81 µM) is 1.01; in test [4] (first compound 50 µM) it was 1.04.

These data come from the supplement of paper PMC10307832.
